Reference: ChEMBL document CHEMBL5257089, “Gamabufotalin Induces Apoptosis and Cytoprotective Autophagy through the mTOR Signaling Pathway in Hepatocellular Carcinoma” (J Nat Prod, 2023)
Calls of active or inactive are those of the source. No cut-off for these calls is given here.

Legend:
Hep 3B2 [1] = assay: Induction of apoptosis in human Hep3B cells assessed as late apoptotic cells at 10 nM incubated for 48 hrs in presence of gamabufotalin by Annexin V-FITC/PI staining based flow cytometry method (reference value: 3.5%); assay type: functional
Huh-7 [2] = assay: Induction of autophagic flux in human Huh-7 cells assessed as rescue of LC3-II accumulation at 10 uM incubated for 48 hrs in presence of gamabufotalin by Western blot analysis; assay type: functional, cell-based
Hep 3B2 [3] = assay: Induction of apoptosis in human Hep3B cells assessed as increase in caspase-3 level at 10 nM incubated for 48 hrs in presence of gamabufotalin by immunoblot analysis; assay type: functional, cell-based
Hep 3B2 [4] = assay: Induction of autophagy in human Hep3B cells assessed as rescue of ULK1 phosphorylation level at upto 10 nM incubated for 48 hrs in presence of gamabufotalin by immunoblot method; assay type: functional, cell-based
Huh-7 [5] = assay: Induction of apoptosis in human Huh-7 cells assessed as early apoptotic cells at 10 nM incubated for 48 hrs by Annexin V-FITC/PI staining based flow cytometry method (reference value: 2.8%); assay type: functional
Huh-7 [6] = assay: Induction of apoptosis in human Huh-7 cells assessed as increase in caspase-3 level at 10 nM incubated for 48 hrs in presence of gamabufotalin by immunoblot analysis; assay type: functional, cell-based
Huh-7 [7] = assay: Induction of autophagic flux in human Huh-7 cells assessed as rescue of p62 at 10 uM incubated for 48 hrs in presence of gamabufotalin by Western blot analysis; assay type: functional, cell-based
Huh-7 [8] = assay: Induction of autophagic flux in human Huh-7 cells harbouring mCherry-egfp-LC3 assessed as reduction in number of red puncta ratio at 10 nM incubated for 15 mins in presence of gamabufotalin by laser scanning confocal microscopic analysis; assay type: functional, cell-based
Huh-7 [9] = assay: Induction of apoptosis in human Huh-7 cells assessed as necrotic cells at 10 nM incubated for 48 hrs by Annexin V-FITC/PI staining based flow cytometry method (reference value: 1.0%); assay type: functional
Hep 3B2 [10] = assay: Induction of autophagic flux in human Hep3B cells assessed as rescue of LC3-I accumulation at 25 uM incubated for 48 hrs in presence of chloroquine by Western blot analysis; assay type: functional, cell-based
Huh-7 [11] = assay: Induction of apoptosis in human Huh-7 cells assessed as reduction in Bcl-2 level at 25 nM incubated for 48 hrs in presence of chloroquine by immunoblot analysis; assay type: functional, cell-based
Hep 3B2 [12] = assay: Induction of autophagic flux in human Hep3B cells assessed as decrease in p62 expression at upto 25 nM incubated for 48 hrs by Western blot analysis; assay type: functional, cell-based
Huh-7 [13] = assay: Induction of morphological changes in human Huh-7 cells assessed as round cell morphology at upto 25 nM incubated for 48 hrs by bright field imaging analysis; assay type: functional, cell-based
Huh-7 [14] = assay: Induction of autophagic flux in human Huh-7 cells harbouring mCherry-egfp-LC3 assessed as reduction in number of red puncta ratio at 25 nM incubated for 15 mins in presence of chloroquine by laser scanning confocal microscopic analysis; assay type: functional, cell-based
Hep 3B2 [15] = assay: Induction of apoptosis in human Hep3B cells assessed as condensed nuclei at […] incubated for 48 hrs by Hoechst33258 staining based fluorescence microscopy; assay type: functional, cell-based
Huh-7 [16] = assay: Induction of autophagic flux in human Huh-7 cells assessed as rescue of LC3-II accumulation at 25 uM incubated for 48 hrs in presence of chloroquine by Western blot analysis; assay type: functional, cell-based
Hep 3B2 [17] = assay: Induction of apoptosis in human Hep3B cells assessed as increase in caspase-3 expression at upto 25 nM incubated for 48 hrs by Western blot analysis; assay type: functional, cell-based
Huh-7 [18] = assay: Induction of apoptosis in human Huh-7 cells assessed as increase in PARP expression at upto 25 nM incubated for 48 hrs by Western blot analysis; assay type: functional, cell-based
Hep 3B2 [19] = assay: Induction of apoptosis in human Hep3B cells assessed as early apoptotic cells at 25 nM measured after 48 hrs in presence of Z-VAD-FMK by annexin V-FITC/Propidium iodide staining based flow cytometric analysis (reference value: 1.6%); assay type: functional
Hep 3B2 [20] = assay: Induction of autophagy in human Hep3B cells assessed as reduction in autophagic vesicles at 25 nM incubated for 48 hrs in presence of 4,6-dimorpholino-N-(4-nitrophenyl)-1,3,5-triazin-2-amine by transmission electron microscopy based analysis; assay type: functional, cell-based
Hep 3B2 [21] = assay: Induction of apoptosis in human Hep3B cells assessed as necrotic cells at 25 nM measured after 48 hrs in presence of Z-VAD-FMK by annexin V-FITC/Propidium iodide staining based flow cytometric analysis (reference value: 0.3%); assay type: functional
Hep 3B2 [22] = assay: Induction of autophagy in human Hep3B cells assessed as upregulation of p62 at 25 uM incubated for 48 hrs in presence of 4,6-dimorpholino-N-(4-nitrophenyl)-1,3,5-triazin-2-amine by immunoblot analysis; assay type: functional, cell-based
Huh-7 [23] = assay: Induction of apoptosis in human Huh-7 cells assessed as increase in cleaved caspase-3 expression at upto 25 nM incubated for 48 hrs by Western blot analysis; assay type: functional, cell-based
Huh-7 [24] = assay: Induction of apoptosis in human Huh-7 cells assessed as early apoptotic cells at 25 nM incubated for 48 hrs by Annexin V-FITC/PI staining based flow cytometry method (reference value: 1.7%); assay type: functional
Hep 3B2 [25] = assay: Induction of autophagic flux in human Hep3B cells harbouring mCherry-egfp-LC3 assessed as reduction in number of yellow puncta ratio at 25 nM incubated for 15 mins in presence of chloroquine by laser scanning confocal microscopic analysis; assay type: functional, cell-based
Huh-7 [26] = assay: Induction of apoptosis in human Huh-7 cells assessed as early apoptotic cells at 25 nM incubated for 48 hrs by Annexin V-FITC/PI staining based flow cytometry method (reference value: 2.8%); assay type: functional
Huh-7 [27] = assay: Induction of apoptosis in human Huh-7 cells assessed as fragmented nuclei at upto […] incubated for 48 hrs by Hoechst33258 staining based fluorescence microscopy; assay type: functional, cell-based
Huh-7 [28] = assay: Induction of autophagic flux in human Huh-7 cells assessed as increase in LC3-I expression at upto 25 nM incubated for 48 hrs by Western blot analysis; assay type: functional, cell-based
Hep 3B2 [29] = assay: Induction of apoptosis in human Hep3B cells assessed as viable cells at 25 nM incubated for 48 hrs in presence of chloroquine by Annexin V-FITC/PI staining based flow cytometry method (reference value: 94.0%); assay type: functional; settings: read-out: Activity
Hep 3B2 [30] = assay: Antitumor activity against human Hep3B cells xenografted in nude mouse model assessed as downregulation of P62 expression at 5 mg/kg,ip administered every second day for 3 weeks by Western blot analysis; assay type: functional, organism-based
Hep 3B2 [31] = assay: Induction of apoptosis in human Hep3B cells assessed as late apoptotic cells at 25 nM incubated for 48 hrs in presence of 4,6-dimorpholino-N-(4-nitrophenyl)-1,3,5-triazin-2-amine by Annexin V-FITC/PI staining based flow cytometry method (reference value: 2.2%); assay type: functional
[32] = Toxicity in mouse assessed as effect on kidney at 5 mg/kg,ip administered every second day for 3 weeks by H and E staining based microscopic method; assay type: organism-based; settings: in vivo, 504 h
Huh-7 [33] = assay: Induction of autophagy in human Huh-7 cells assessed as rescue of mTOR phosphorylation level at upto 25 nM incubated for 48 hrs in presence of chloroquine by immunoblot method; assay type: functional, cell-based
Huh-7 [34] = assay: Induction of autophagic flux in human Huh-7 cells harbouring mCherry-egfp-LC3 assessed as increase in yellow puncta at 25 nM incubated for 15 mins by laser scanning confocal microscopic analysis; assay type: functional, cell-based

CCN(CC)CCCC(C)Nc1ccnc2cc(Cl)ccc12 (centres undefined) [CHLOROQUINE]
Activity (Hep 3B2 [1]): 17.4%
Activity (Huh-7 [2]): Active
Activity (Hep 3B2 [3]): Active
Activity (Hep 3B2 [4]): Active
Activity (Huh-7 [5]): 2.9%
Activity (Huh-7 [6]): Active
Activity (Huh-7 [7]): Active
Activity (Huh-7 [8]): Active
Activity (Huh-7 [9]): 1.9%

C[C@]12CC[C@H](O)C[C@H]1CC[C@@H]1[C@@H]2[C@H](O)C[C@]2(C)[C@@H](c3ccc(=O)oc3)CC[C@]12O [GAMABUFOTALIN]
Activity (Hep 3B2 [10]): Active
Activity (Huh-7 [11]): Active
Activity (Hep 3B2 [12]): Active
Activity (Huh-7 [13]): Active
Activity (Huh-7 [14]): Active
Activity (Hep 3B2 [15]): Active
Activity (Huh-7 [16]): Active
Activity (Hep 3B2 [17]): Active
Activity (Huh-7 [18]): Active
Activity (Hep 3B2 [19]): 4.4%
Activity (Hep 3B2 [20]): Active
Activity (Hep 3B2 [21]): 0.3%
Activity (Hep 3B2 [22]): Active
Activity (Huh-7 [23]): Active
Activity (Huh-7 [24]): 5.6%
Activity (Hep 3B2 [25]): Active
Activity (Huh-7 [26]): 8.7%
Activity (Huh-7 [27]): Active
Activity (Huh-7 [28]): Active
viability at 0.025 µM (Hep 3B2 [29]): 63.9%
Activity (Hep 3B2 [30]): Active
Activity (Hep 3B2 [31]): 20.2%
Activity [32]: Non-Toxic
Activity (Huh-7 [33]): Active
Activity (Huh-7 [34]): Active
